Source: patent US8802597B2, “Herbicidal pyrimidines” (E I du Pont de Nemours and Company, priority 2003, dated 2014)
Where two headings read alike, the source gives them in different places.

Experiments:
Assay type in all cases: in vivo
[1] = test system: duck salad (Heteranthera limosa); assay: Test B flooded paddy test; settings: Heteranthera limosa, Flood, 1000 g ai/ha; scale 0 to 100; read-out: Plant response rating, Ducksalad
Outline: (§1)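 Rice, umbrella sedge, duck salad and barnyardgrass grown to 2-leaf stage under flooded paddy conditions and treated with formulated test chemicals. Kept in greenhouse 13–15 days, then visually rated against untreated controls on a 0–100 scale (0 no effect, 100 complete control).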

rice (Oryza sativa) = assay: Test B flooded paddy test; settings: Oryza sativa, Flood, 1000 g ai/ha; scale 0 to 100; read-out: Plant response rating, Rice
Outline: as §1

[2] = test system: umbrella sedge (Cyperus difformis); assay: Test B flooded paddy test; settings: Cyperus difformis, Flood, 1000 g ai/ha; scale 0 to 100; read-out: Plant response rating, Sedge, Umbrella
Outline: as §1

[3] = test system: barnyardgrass (Echinochloa crus-galli); assay: Test B flooded paddy test; settings: Echinochloa crus-galli, Flood, 1000 g ai/ha; scale 0 (no effect) to 100 (complete control); read-out: Plant response rating, Barnyardgrass
Outline: as §1

[4] = test system: wheat (Triticum aestivum); assay: Test B pre/postemergence; settings: Triticum aestivum; for plant injury at 125 g/ha: 125 g ai/ha; for plant injury at 500 g/ha: 500 g ai/ha
Outline: (§2)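 Compounds in non-phytotoxic solvent with surfactant applied preemergence to planted seeds or postemergence to plants 2 to 18 cm tall (1- to 4-leaf stage). Greenhouse 13 to 15 days, then visual rating against controls on a 0 to 100 scale (100 = complete control).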

[5] = test system: crabgrass (Digitaria sanguinalis); assay: Test B pre/postemergence; settings: Digitaria sanguinalis; for pest or weed control at 125 g/ha: 125 g ai/ha; for pest or weed control at 500 g/ha: 500 g ai/ha
Outline: as §2

[6] = test system: morningglory (Ipomoea coccinea); assay: Test B pre/postemergence; settings: Ipomoea; for pest or weed control at 125 g/ha: 125 g ai/ha; for pest or weed control at 500 g/ha: 500 g ai/ha
Outline: as §2

[7] = test system: velvetleaf (Abutilon theophrasti); assay: Test B pre/postemergence; settings: Abutilon theophrasti; for pest or weed control at 125 g/ha: 125 g ai/ha; for pest or weed control at 500 g/ha: 500 g ai/ha
Outline: as §2

[8] = test system: Surinam grass (Brachiaria decumbens); assay: Test B pre/postemergence; settings: Urochloa decumbens; for pest or weed control at 125 g/ha: 125 g ai/ha; for pest or weed control at 500 g/ha: 500 g ai/ha
Outline: as §2

[9] = test system: pigweed (Amaranthus retroflexus); assay: Test B pre/postemergence; settings: Amaranthus retroflexus; for pest or weed control at 125 g/ha: 125 g ai/ha; for pest or weed control at 500 g/ha: 500 g ai/ha
Outline: as §2

[10] = test system: lambsquarters (Chenopodium album); assay: Test B pre/postemergence; settings: Chenopodium album; for pest or weed control at 125 g/ha: 125 g ai/ha; for pest or weed control at 500 g/ha: 500 g ai/ha
Outline: as §2

corn (Zea mays) = assay: Test B pre/postemergence; settings: Zea mays
Outline: as §2

[11] = test system: cocklebur (Xanthium strumarium); assay: Test B pre/postemergence; settings: Xanthium strumarium; for pest or weed control at 125 g/ha: 125 g ai/ha; for pest or weed control at 500 g/ha: 500 g ai/ha
Outline: as §2

[12] = test system: giant foxtail (Setaria faberii); assay: Test B pre/postemergence; settings: Setaria faberi; for pest or weed control at 125 g/ha: 125 g ai/ha; for pest or weed control at 500 g/ha: 500 g ai/ha
Outline: as §2

[13] = test system: barnyardgrass (Echinochloa crus-galli); assay: Test B pre/postemergence; settings: Echinochloa crus-galli; for pest or weed control at 125 g/ha: 125 g ai/ha; for pest or weed control at 500 g/ha: 500 g ai/ha
Outline: as §2

wild oat (Avena fatua) = assay: Test B postemergence; settings: Avena fatua, post-emergence
Outline: as §2

[14] = test system: blackgrass (Alopecurus myosuroides); assay: Test B postemergence; settings: Alopecurus myosuroides, post-emergence
Outline: as §2

[15] = pre-emergence, Preemergence, scale 0 to 100 (0 no effect, 100 complete control), read-out: Plant response rating, Wheat

CCOC(=O)c1nc(C(C)(C)C)nc(N)c1Br [Compound 36]
70%: pest or weed control at 500 g/ha ([6]; post-emergence, Postemergence, scale 0 to 100, read-out: Plant response rating, Morningglory) | pest or weed control at 500 g/ha ([11]; post-emergence, Postemergence, scale 0 to 100, read-out: Plant response rating, Cocklebur)
10%: pest or weed control at 125 g/ha ([6]; post-emergence, Postemergence, scale 0 to 100 (0 no effect, 100 complete control), read-out: Morningglory plant response rating) | pest or weed control at 125 g/ha ([7]; pre-emergence, Preemergence, scale 0 to 100 (0 no effect, 100 complete control), read-out: Plant response rating, Velvetleaf) | pest or weed control at 125 g/ha ([11]; pre-emergence, Preemergence, scale 0 to 100 (0 no effect, 100 complete control), read-out: Plant response rating, Cocklebur) | pest or weed control at 500 g/ha ([12]; post-emergence, Postemergence, scale 0 to 100, read-out: Plant response rating, Foxtail, Giant)
50%: pest or weed control at 500 g/ha ([10]; post-emergence, Postemergence, scale 0 to 100, read-out: Plant response rating, Lambsquarters)
20%: pest or weed control at 125 g/ha ([7]; post-emergence, Postemergence, scale 0 to 100 (0 no effect, 100 complete control), read-out: Velvetleaf plant response rating) | pest or weed control at 125 g/ha ([9]; post-emergence, Postemergence, scale 0 to 100 (0 no effect, 100 complete control), read-out: Pigweed plant response rating) | pest or weed control at 500 g/ha ([9]; pre-emergence, Preemergence, scale 0 to 100 (0 no effect, 100 complete control), read-out: Pigweed plant response rating) | pest or weed control at 125 g/ha ([11]; post-emergence, Postemergence, scale 0 to 100 (0 no effect, 100 complete control), read-out: Cocklebur plant response rating)
0%: pest or weed control at 1000 g/ha [1] | plant injury at 1000 g/ha (rice (Oryza sativa)) | pest or weed control at 1000 g/ha [2] | pest or weed control at 1000 g/ha [3] | plant injury at 125 g/ha ([4]; post-emergence, Postemergence, scale 0 to 100 (0 no effect, 100 complete control), read-out: Wheat plant response rating) | plant injury at 125 g/ha [4, 15] | plant injury at 500 g/ha [4, 15] | pest or weed control at 125 g/ha ([5]; post-emergence, Postemergence, scale 0 to 100 (0 no effect, 100 complete control), read-out: Crabgrass plant response rating) | pest or weed control at 500 g/ha ([5]; post-emergence, Postemergence, scale 0 to 100, read-out: Plant response rating, Crabgrass) | pest or weed control at 125 g/ha ([5]; pre-emergence, Preemergence, scale 0 to 100 (0 no effect, 100 complete control), read-out: Plant response rating, Crabgrass) | pest or weed control at 500 g/ha ([5]; pre-emergence, Preemergence, scale 0 to 100 (0 no effect, 100 complete control), read-out: Crabgrass plant response rating) | pest or weed control at 125 g/ha ([6]; pre-emergence, Preemergence, scale 0 to 100 (0 no effect, 100 complete control), read-out: Plant response rating, Morningglory) | pest or weed control at 500 g/ha ([6]; pre-emergence, Preemergence, scale 0 to 100 (0 no effect, 100 complete control), read-out: Morningglory plant response rating) | pest or weed control at 125 g/ha ([8]; post-emergence, Postemergence, scale 0 to 100 (0 no effect, 100 complete control), read-out: Surinam Grass plant response rating) | pest or weed control at 500 g/ha ([8]; post-emergence, Postemergence, scale 0 to 100, read-out: Plant response rating, Surinam Grass) | pest or weed control at 125 g/ha ([8]; pre-emergence, Preemergence, scale 0 to 100 (0 no effect, 100 complete control), read-out: Plant response rating, Surinam Grass) | pest or weed control at 500 g/ha ([8]; pre-emergence, Preemergence, scale 0 to 100 (0 no effect, 100 complete control), read-out: Surinam Grass plant response rating) | pest or weed control at 125 g/ha ([9]; pre-emergence, Preemergence, scale 0 to 100 (0 no effect, 100 complete control), read-out: Plant response rating, Pigweed) | pest or weed control at 125 g/ha ([10]; pre-emergence, Preemergence, scale 0 to 100 (0 no effect, 100 complete control), read-out: Plant response rating, Lambsquarters) | plant injury at 125 g/ha (corn (Zea mays); post-emergence, Postemergence, 125 g ai/ha, scale 0 to 100 (0 no effect, 100 complete control), read-out: Corn plant response rating) | Corn plant response rating (crop injury, 0 = no effect, 100 = complete kill) at 500 g/ha (corn (Zea mays); post-emergence, Postemergence, 500 g ai/ha, scale 0 to 100) | Corn plant response rating (crop injury, 0 = no effect, 100 = complete kill) at 125 g/ha (corn (Zea mays); pre-emergence, Preemergence, 125 g ai/ha, scale 0 to 100 (0 no effect, 100 complete control)) | plant injury at 500 g/ha (corn (Zea mays); pre-emergence, Preemergence, 500 g ai/ha, scale 0 to 100 (0 no effect, 100 complete control), read-out: Corn plant response rating) | pest or weed control at 125 g/ha ([12]; post-emergence, Postemergence, scale 0 to 100 (0 no effect, 100 complete control), read-out: Foxtail, Giant plant response rating) | pest or weed control at 125 g/ha ([12]; pre-emergence, Preemergence, scale 0 to 100 (0 no effect, 100 complete control), read-out: Plant response rating, Foxtail, Giant) | pest or weed control at 500 g/ha ([12]; pre-emergence, Preemergence, scale 0 to 100 (0 no effect, 100 complete control), read-out: Foxtail, Giant plant response rating) | pest or weed control at 125 g/ha ([13]; post-emergence, Postemergence, scale 0 to 100 (0 no effect, 100 complete control), read-out: Barnyardgrass plant response rating) | pest or weed control at 500 g/ha ([13]; post-emergence, Postemergence, scale 0 to 100, read-out: Plant response rating, Barnyardgrass) | pest or weed control at 125 g/ha ([13]; pre-emergence, Preemergence, scale 0 to 100 (0 no effect, 100 complete control), read-out: Plant response rating, Barnyardgrass) | pest or weed control at 500 g/ha ([13]; pre-emergence, Preemergence, scale 0 to 100 (0 no effect, 100 complete control), read-out: Barnyardgrass plant response rating) | pest or weed control at 125 g/ha (wild oat (Avena fatua); 125 g ai/ha, scale 0 to 100 (0 no effect, 100 complete control), read-out: Oat, Wild plant response rating) | pest or weed control at 125 g/ha ([14]; 125 g ai/ha, scale 0 to 100 (0 no effect, 100 complete control), read-out: Blackgrass plant response rating)
30%: pest or weed control at 500 g/ha ([9]; post-emergence, Postemergence, scale 0 to 100, read-out: Plant response rating, Pigweed)
60%: pest or weed control at 500 g/ha ([11]; pre-emergence, Preemergence, scale 0 to 100 (0 no effect, 100 complete control), read-out: Cocklebur plant response rating)
40%: plant injury at 500 g/ha ([4]; post-emergence, Postemergence, scale 0 to 100, read-out: Plant response rating, Wheat) | pest or weed control at 500 g/ha ([7]; post-emergence, Postemergence, scale 0 to 100, read-out: Plant response rating, Velvetleaf) | pest or weed control at 500 g/ha ([7]; pre-emergence, Preemergence, scale 0 to 100 (0 no effect, 100 complete control), read-out: Velvetleaf plant response rating) | pest or weed control at 125 g/ha ([10]; post-emergence, Postemergence, scale 0 to 100 (0 no effect, 100 complete control), read-out: Lambsquarters plant response rating) | pest or weed control at 500 g/ha ([10]; pre-emergence, Preemergence, scale 0 to 100 (0 no effect, 100 complete control), read-out: Lambsquarters plant response rating) | pest or weed control at 500 g/ha (wild oat (Avena fatua); 500 g ai/ha, scale 0 to 100, read-out: Plant response rating, Oat, Wild) | pest or weed control at 500 g/ha ([14]; 500 g ai/ha, scale 0 to 100, read-out: Plant response rating, Blackgrass)
